The values that follow come from PMC12641781, “Insights into Hepatic, Neuronal, and hERG Channel Safety of Plant-Derived Active Compounds” (Journal of Xenobiotics, 2025).

The subject of series [1] is Undifferentiated ReNcell VM cells. Briefly: Neuronal viability assay, undifferentiated cells (resazurin). The series is classed as cell-based, human. The following applies: for IC50: 24 h, read-out: IC50, undifferentiated ReNcell VM cell viability; for Inhibition of undifferentiated ReNcell NSC viability: at concentrations up to 100 µM, compared to Triton X-100. As for the experimental part: Undifferentiated ReNcell VM cells were seeded into Matrigel®-coated black, clear-bottom 96-well plates at densities of 1.5 × 10^4 per well. The cells were maintained in ReNcell NSC Maintenance Media (Merck Millipore, MA, USA), supplemented with 10% EGF and 1% penicillin/streptomycin, and were incubated at 37 °C with 5% CO2 for 24 h.
(§1) Differentiated ReNcell VM cells were seeded into Matrigel®-coated black, clear-bottom 96-well plates at densities of 3.0 × 10^4 per well. The ReNcell VM cells were incubated at 37 °C with 5% CO2 in the ReNcell Maintenance Media (Merck Millipore, MA, USA) without growth factor. The media was changed every two days for three weeks. Both cell types were treated with test compounds at 0.01, 0.1, 1, 10, and 100 μM. DMSO was used as the control for maximum cell viability, and Triton X-100 was the control for minimum viability. After 20 h of incubation at 37 °C with 5% CO2. Cell viability was assessed using the CellTiter-Blue® Cell Resazurin reagent.
For orientation: Resazurin is reduced to fluorescent resorufin, in cell work by metabolically active cells.

In series [2] the test system is HepG2 cells. Briefly: Hepatocellular viability assay (resazurin reduction). As to conditions: for IC50: Homo sapiens, read-out: IC50, HepG2 cell viability. It is filed as cell-based, Human. As to the method: HepG2 cells (1.5 × 10^4 cells per 100 µL) were seeded into black, clear-bottom 96-well plates and incubated at 37 °C with 5% CO2 for 24 h. The test compounds were prepared in complete media at final concentrations of 0.01, 0.1, 1, 10, and 100 μM and added to each well. For the negative control, 0.2% (v/v) DMSO was used to represent maximum viability, while 0.01% (v/v) Triton X-100 was used as the positive control for minimum viability. The plates were incubated at 37 °C under 5% CO2. After 20 h of incubation, 20% (v/v) CellTiter-Blue Cell Resazurin reagent was added to each well, followed by an additional 2–4 h of incubation. Fluorescence intensity, indicating resorufin levels, was measured at 590 nm using a Synergy H1 reader was obtained from Agilent Technologies (Santa Clara, CA, USA). Each data point was normalized based on the maximum and minimum cell viability data and expressed as % Relative viability using the following formula: % Relative viability=(Experimental data−Minimal viability data)/(Maximal viability data−Minimal viability data)×100

The test system of series [3] is Differentiated ReNcell VM cells. The series is described as follows: Neuronal viability assay, differentiated cells (resazurin). It is filed as cell-based. As to conditions: Homo sapiens, read-out: IC50, differentiated ReNcell VM cell viability. As for the experimental part: ReNcell VM cells were seeded into Matrigel®-coated black, clear-bottom 96-well plates at a density of 3.0 × 10^4 cells per well for differentiation assays. The cells were maintained in ReNcell NSC Maintenance Medium (Merck Millipore, Burlington, MA, USA) without growth factors to induce differentiation. The culture medium was changed every two days for three weeks.
as §1

A further series addresses T1, hERG (Homo sapiens, UniProt Q12809).
T1 construct: host or cells: HEK293 cells stably overexpressing hERG
The series is described as follows: hERG inhibition assay by automated patch-clamp electrophysiology in hERG-overexpressing HEK293 cells. It is filed as cell-based. As to the method:
hERG channel inhibition assay was performed using patch-clamp electrophysiology. HEK293 cells stably overexpressing hERG channels (Eurofins Scientific, Luxembourg) were cultured in Dulbecco’s Modified Eagle Medium F-12 (GIBCO, Carlsbad, CA, USA) supplemented with 10% (v/v) fetal bovine serum (FBS) and 1% penicillin/streptomycin at 37 °C with 5% CO2 until reaching approximately 80% confluency. Cells were then subcultured using trypsin (HyClone, Marlborough, MA, USA), to enzymatically detach adherent HEK293 cells, centrifuged, and resuspended in the External standard buffer (Nanion Technologies, Munich, Germany).
A gigaohm seal was formed after cell seeding in the NPC-16 chip (Nanion Technologies) wells. Brief suction pulses were applied to achieve whole-cell configuration. The hERG channel activity was assessed using a voltage protocol consisting of steps to −80 mV, −40 mV, +40 mV, −40 mV, and back to −80 mV, triggering tail currents. Each well’s peak hERG tail current served as the baseline activity level. To evaluate the inhibitory effects of the six tested compounds, their stock solutions ([…]) were diluted with the external standard buffer to final concentrations of 100 µM, 10 µM, 1 µM, 0.1 µM, and 0.01 µM, and automatically applied to the wells. Subsequently, hERG channel activity was measured again using the same voltage protocol. The relative changes in hERG activity induced by the compounds were calculated and expressed as percentages using the following formula:% hERG activity = (Peak hERG tail current after compound treatment/Peak hERG tail current before compound treatment) × 100

For another series, the system named is CYP2D6. Further details: method as in PMID 37553989. The following applies: EPMC as major active compound of the Dephrungsith formulation; cited from earlier work.
The subject of a further series is CYP2E1. Further details: method as in PMID 24146513. The following applies: in the Yahom Tultavai formulation; cited from earlier work.
In another series the test system is CYP1A2. Set-up: method as in PMID 24146513. As to conditions: in the Yahom Tultavai formulation; cited from earlier work.
Another series has as its system CYP1A1. Set-up: method as in PMID 24146513. As to conditions: in the Yahom Tultavai formulation; cited from earlier work.
For series [4] the following is noted: dose of 10 g, healthy volunteers; cited from earlier work.
The conditions of series [5]: AL single oral dose of 1000 mg/kg body weight (equivalent to 48.4 mg of ATD), healthy Thai subjects; cited from earlier work.
For series [6] the following is noted: single oral dose of rikkunshito (7.5 g/day), healthy Japanese subjects; cited from earlier work.
The test system of series [7] is triple-negative breast cancer (TNBC) cells. Further details: method as in PMID 29348769, PMID 31388314, PMID 40952293. The following applies: cited from earlier work.
Series [8] has as its system HepG2 cells. Further details: method as in PMID 29348769, PMID 31388314, PMID 40952293. The following applies: cited from earlier work.
The conditions of series [9]: rats, oral dose of 100 mg/kg body weight; read-out: plasma Cmax; cited from earlier work.
Details of series [10]: method as in PMID 18039808. As to conditions: oral 500 mg/kg dose in animals; cited from earlier work.
[11] abbreviates: Homo sapiens, undifferentiated ReNcell VM cells, resazurin assay, 0.01-100 μM.
Setting [12] is: HepG2 cells, 24 h, resazurin assay, 0.01-100 μM.
[13] abbreviates: differentiated ReNcell VM cells (three weeks without growth factor), 24 h, resazurin assay.
Where [14] appears, read: hERG-overexpressing HEK293 cells, peak tail current, automated patch clamp, read-out: IC50, hERG channel activity.
The mark [15] stands for this setting: Homo sapiens, ReNcell VM, undifferentiated ReNcell VM cells, resazurin assay, 0.01-100 μM.

In brackets after ≈: the same amount, converted by molar mass. Where two headings read alike, the source gives them in different places.

T1 sequence (Q12809 whole entry): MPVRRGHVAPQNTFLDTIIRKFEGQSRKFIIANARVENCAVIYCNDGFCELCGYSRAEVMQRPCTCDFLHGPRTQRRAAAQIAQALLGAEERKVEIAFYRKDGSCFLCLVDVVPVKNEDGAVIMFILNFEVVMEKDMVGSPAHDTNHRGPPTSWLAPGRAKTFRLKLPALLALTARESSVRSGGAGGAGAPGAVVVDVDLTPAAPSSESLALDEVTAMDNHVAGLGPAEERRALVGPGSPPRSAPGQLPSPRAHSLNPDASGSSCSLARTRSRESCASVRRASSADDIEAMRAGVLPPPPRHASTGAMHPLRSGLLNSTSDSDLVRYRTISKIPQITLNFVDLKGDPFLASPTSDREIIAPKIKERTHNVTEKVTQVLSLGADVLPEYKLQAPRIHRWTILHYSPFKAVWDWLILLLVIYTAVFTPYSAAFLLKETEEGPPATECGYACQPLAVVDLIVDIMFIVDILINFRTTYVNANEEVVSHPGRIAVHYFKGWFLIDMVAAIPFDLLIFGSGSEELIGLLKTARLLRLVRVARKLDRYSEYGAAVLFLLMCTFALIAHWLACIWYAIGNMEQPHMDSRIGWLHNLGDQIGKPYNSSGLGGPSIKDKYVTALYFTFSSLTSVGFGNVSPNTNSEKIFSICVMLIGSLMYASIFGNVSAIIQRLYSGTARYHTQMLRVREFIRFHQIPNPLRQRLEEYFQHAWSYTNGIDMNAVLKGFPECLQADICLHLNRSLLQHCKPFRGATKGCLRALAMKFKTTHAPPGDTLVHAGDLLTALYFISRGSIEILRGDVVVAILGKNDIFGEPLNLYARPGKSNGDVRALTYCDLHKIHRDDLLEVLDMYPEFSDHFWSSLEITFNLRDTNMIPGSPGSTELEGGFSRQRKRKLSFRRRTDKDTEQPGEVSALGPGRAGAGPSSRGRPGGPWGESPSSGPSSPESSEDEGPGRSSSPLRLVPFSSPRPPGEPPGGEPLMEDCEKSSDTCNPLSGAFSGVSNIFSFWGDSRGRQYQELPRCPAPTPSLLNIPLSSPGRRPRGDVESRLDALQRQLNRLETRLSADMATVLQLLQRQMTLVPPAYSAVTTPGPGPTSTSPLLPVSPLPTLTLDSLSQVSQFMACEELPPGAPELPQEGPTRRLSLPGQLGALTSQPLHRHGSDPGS

For `C=C1CCC[C@]2(C)CC[C@@H](C(C)(C)O)C[C@@H]12` [BEU, β-eudesmol], the half-inhibitory concentration (IC50) is greater than 100 µM in series [1] (setting [11]), greater than 100 µM with HepG2 cells [2] (setting [12]), greater than 100 µM in [3] (setting [13]) and 33.4 µM on hERG (setting [14]). In addition, in series [1], the “Inhibition of undifferentiated ReNcell NSC viability” value is given as “did not inhibit”.

triton X-100 [reference compound]: the “HepG2 cell viability compared to the 0.2% DMSO-treated group” value with HepG2 cells [2] was “significant decrease in cell viability”.

As for `CCOC(=O)/C=C/c1ccc(OC)cc1` [EPMC, ethyl-p-methoxycinnamate], the 50% inhibitory concentration (IC50) in series [1] (setting [15]) is greater than 100 µM; with HepG2 cells [2] (HepG2, 24 h, HepG2 cells, 24 h, resazurin assay, 0.01-100 μM), greater than 100 µM; in [3] (setting [13]) it was greater than 100 µM; at hERG (setting [14]), 53 µM. In addition, the “Inhibition of undifferentiated ReNcell NSC viability” value in series [1] is listed as “did not inhibit”. Moreover, the “CYP2D6 inhibition in vitro” value with CYP2D6 was “potently inhibits”. Moreover, in the series on CYP2E1, the “CYP2E1 inhibition in vivo” value is reported as “inhibits”. The “CYP1A2 inhibition in vivo” value with CYP1A2 is listed as “inhibits”. Moreover, the “CYP1A1 inhibition in vivo” value with CYP1A1 is reported as “inhibits”.

On to `COc1cc(/C=C/C(=O)CC(=O)/C=C/c2ccc(O)c(OC)c2)ccc1O` [CUR, Curcumin], for which the concentration for half-maximal inhibition (IC50) was found to be 21.1 µM in series [1] (setting [15]); 21.2 µM in series [1] (undifferentiated ReNcell VM cells, resazurin assay, 0.01-100 μM); 21 µM with HepG2 cells [2] (setting [12]). For the same compound, the “plasma Cmax” value in [4] was 2300 ng/mL.

As for `C/C=C/C#CC#C/C=C/c1ccco1` [ATD, Atractylodin], the “maximal plasma concentration (Cmax)” value in [5] is 50.35 (13.8–52.90) ng/mL; in [6] it was 0.002 to 20 ng/mL. The concentration for half-maximal inhibition (IC50) in [1] (Homo sapiens, ReNcell VM) was greater than 100 µM; with HepG2 cells [2] (HepG2, 24 h), greater than 100 µM; in [3] (ReNcell VM), greater than 100 µM; at hERG, 26.4 µM; on hERG (human) it was 22.4 µM. The “Inhibition of undifferentiated ReNcell NSC viability” value in series [1] is reported as “did not inhibit”. The “IC50, triple-negative breast cancer (TNBC) cells” value in series [7] is recorded as 92.11 µg/mL (≈ 505 µM). The “IC50, inhibitory effects on HepG2 cells” value in the series with HepG2 cells [8] is 26.19 µg/mL (≈ 144 µM).

As to `COc1c(O)cc2oc3cc(O)c(CC=C(C)C)c(O)c3c(=O)c2c1CC=C(C)C` [αMG, α-mangostin], the Cmax in series [9] is 1380 nM. Also, the half-maximal inhibitory concentration (IC50) was 6 µM in series [3] (setting [13]) and greater than 100 µM on hERG (setting [14]).

For `CCC/C=C1\OC(=O)C2=C1CCC=C2` [LIG, ligustilide], the half-maximal inhibitory concentration (IC50) in series [1] (setting [11]) is greater than 100 µM; in the series on HepG2 cells [2] (setting [12]), greater than 100 µM; in [3] (setting [13]), greater than 100 µM; at hERG (setting [14]) it was 37.3 µM. For the same compound, the “Inhibition of undifferentiated ReNcell NSC viability” value in series [1] is given as “did not inhibit”. The “plasma Cmax” value in series [10] is 660 ng/mL.

In general, IC50 refers to the point on the concentration scale where inhibition reaches its midpoint. By Cmax is commonly meant the peak of the concentration-time curve.
